Patent US10702506B2, “Small molecule inhibitors of pendrin ion exchange and pharmaceutical compositions” (THE REGENTS OF THE UNIVERSITY OF CALIFORNIA, priority 2016, dated 2020)
Like-named read-outs stand apart in the source and are kept apart here.

Columns and labels:
CFTR = target: T1, CFTR (Homo sapiens, UniProt P13569); experiment: Short-circuit current (Isc) analysis in IL-13-treated HBE cells, forskolin / CFTRinh-172 response; format: cell-based; conditions: 25 μM, 30 min pre-treatment
T1 construct: endogenous in cells; host or cells: IL-13-treated primary HBE cell cultures (HBE = non-CF donors)
Protocol: Further experiments were done with PDSinh-A01 because of its greater inhibition potency for Cl^−/HCO3^− exchange than PDSinh-C01. To investigate PDSinh-A01 specificity, the major ion transport pathways in HBE cells were studied by short-circuit current (Isc) analysis. Cells were treated with IL-13 to increase Ca^2+-activated Cl^− conductance (CaCC) activity. For Isc measurements, cells were sequentially treated with amiloride to inhibit the epithelial sodium channel (ENaC), forskolin to activate the cystic fibrosis transmembrane conductance regulator (CFTR), CFTRinh-172 to inhibit CFTR, and ATP to activate CaCC. In the absence of PDSinh-A01, ion channel modulators produced the anticipated changes in Isc (FIG. 4A).
IL-13-treated HBE cells were cultured on Snapwell clear permeable supports (12 mm diameter, 0.4 μm polyester membrane, Costar, Corning, Corning, N.Y.). Short-circuit current was measured using symmetrical HCO3^−-buffered solutions (in mM: 120 NaCl, 5 KCl, 1 MgCl2, 1 CaCl2, 5 Hepes, 25 NaHCO3; pH 7.4) as described, with ion transport modulators added to both apical and basolateral bathing solutions. Cells were equilibrated with 95% O2/5% CO2 and maintained at 37° C. during data acquisition. Statistical analysis was by Student's t-test.

pendrin = target: T2, pendrin (Homo sapiens, UniProt O43511); experiment: YFP (EYFP-HIF) fluorescence quenching assay of pendrin-mediated Cl− exchange (SCN−, I−, NO3−) in FRT cells; high-throughput screen; format: cell-based; set-up: expressed in transfected cells; conditions: for inhibition at 25 µM: FRT, read-out: Inh. (%), percentage inhibition of human pendrin
T2 sequence (O43511 1-780): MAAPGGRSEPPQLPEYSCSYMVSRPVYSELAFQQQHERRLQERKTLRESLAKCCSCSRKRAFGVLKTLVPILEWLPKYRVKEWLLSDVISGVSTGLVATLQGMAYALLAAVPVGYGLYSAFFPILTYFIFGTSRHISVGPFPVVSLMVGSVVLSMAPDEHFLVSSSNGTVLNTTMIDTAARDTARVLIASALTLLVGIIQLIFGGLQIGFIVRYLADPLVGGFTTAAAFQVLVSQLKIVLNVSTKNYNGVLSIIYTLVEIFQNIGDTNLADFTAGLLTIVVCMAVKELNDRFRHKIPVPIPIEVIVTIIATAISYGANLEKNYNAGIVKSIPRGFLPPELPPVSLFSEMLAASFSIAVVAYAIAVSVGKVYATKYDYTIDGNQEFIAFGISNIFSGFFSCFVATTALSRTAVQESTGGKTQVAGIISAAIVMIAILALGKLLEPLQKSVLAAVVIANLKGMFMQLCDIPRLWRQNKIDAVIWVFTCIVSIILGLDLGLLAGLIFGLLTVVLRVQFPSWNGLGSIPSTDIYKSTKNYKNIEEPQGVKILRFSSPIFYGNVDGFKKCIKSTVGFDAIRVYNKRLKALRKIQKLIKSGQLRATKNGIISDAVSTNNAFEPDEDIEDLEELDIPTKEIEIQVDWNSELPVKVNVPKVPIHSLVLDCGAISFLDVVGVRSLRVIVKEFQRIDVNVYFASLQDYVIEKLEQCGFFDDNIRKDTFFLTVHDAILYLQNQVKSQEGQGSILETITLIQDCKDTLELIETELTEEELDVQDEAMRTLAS
Protocol: Fischer rat thyroid (FRT) cells were cultured in Kaign's modified Ham's F12 medium supplemented with 10% FBS, 2 mM L-glutamine, 100 U/ml penicillin, […], […] myo-inositol and […] ascorbic acid. For high-throughput screening, FRT cells were stably transfected with EYFP-H148Q/I152L/F46L (EYFP-HIF; in pcDNA3.1/Hygro (+)), isolated using 0.25 mg/ml hygromycin B, and then transfected with pcDNA3.1 (+) encoding human pendrin with clonal cell lines selected using 0.5 mg/ml G418.
High-throughput screening was performed using a semi-automated screening platform (Beckman, Fullerton, Calif.) configured as described. FRT cells expressing human pendrin and EYFP-HIF were plated in 96-well black-walled, clear-bottom tissue culture plates (Corning, Corning, N.Y.) at a density of 20,000 cells/well, and cultured to confluence over 48 h. For screening, plates were washed twice with PBS (in mM: 137 NaCl, 2.7 KCl, 1.1 KH2PO4, 8.1 Na2HPO4, 0.9 CaCl2), 0.5 MgCl2) prior to addition of 100 μl PBS containing test compounds. Screening was done with ˜36,000 compounds from ChemDiv (San Diego, Calif.), TimTec (Newark, Del.), and Asinex (Winston-Salem, N.C.). After 10 min incubation with test compound, plates were transferred to a Tecan Infinite M1000 plate reader (Tecan, Morrisville, N.C.) for fluorescence assay of pendrin activity. The assay duration was 10 s with initial fluorescence intensity recorded for 2 s prior to addition of 100 μl of NaSCN-substituted PBS (137 mM NaCl replaced with NaSCN). All assay plates contained negative controls (DMSO). In some experiments Cl^− exchange for I^− or NO3^− was measured similarly using NaI and NaNO3-substituted PBS. Control experiments to measure basal ion transport rates were done in FRT cells expressing EYFP-HIF without pendrin.
FRT cells were chosen for screening due to their low intrinsic permeability to anions that are transported by pendrin. As depicted in FIGS. 1A and 2A, pendrin activity was assayed from the kinetics of the halide-sensitive fluorescent protein EYFP-HIF in response to addition of a SCN^−-containing solution to drive pendrin-mediated Cl^−/SCN^−. Pendrin inhibition reduces the rate of EYFP-HIF quenching. PDSinh-A01 land PDSinh-C01 decreased pendrin-mediated Cl^−/SCN^− and Cl^−/I^− exchange in a concentration-dependent manner, as measured by YFP fluorescence quenching. […] Because the only previously-described pendrin inhibitor is the weakly active compound niflumic acid, no positive control was included in the screening plates.

T1 sequence (P13569 whole entry): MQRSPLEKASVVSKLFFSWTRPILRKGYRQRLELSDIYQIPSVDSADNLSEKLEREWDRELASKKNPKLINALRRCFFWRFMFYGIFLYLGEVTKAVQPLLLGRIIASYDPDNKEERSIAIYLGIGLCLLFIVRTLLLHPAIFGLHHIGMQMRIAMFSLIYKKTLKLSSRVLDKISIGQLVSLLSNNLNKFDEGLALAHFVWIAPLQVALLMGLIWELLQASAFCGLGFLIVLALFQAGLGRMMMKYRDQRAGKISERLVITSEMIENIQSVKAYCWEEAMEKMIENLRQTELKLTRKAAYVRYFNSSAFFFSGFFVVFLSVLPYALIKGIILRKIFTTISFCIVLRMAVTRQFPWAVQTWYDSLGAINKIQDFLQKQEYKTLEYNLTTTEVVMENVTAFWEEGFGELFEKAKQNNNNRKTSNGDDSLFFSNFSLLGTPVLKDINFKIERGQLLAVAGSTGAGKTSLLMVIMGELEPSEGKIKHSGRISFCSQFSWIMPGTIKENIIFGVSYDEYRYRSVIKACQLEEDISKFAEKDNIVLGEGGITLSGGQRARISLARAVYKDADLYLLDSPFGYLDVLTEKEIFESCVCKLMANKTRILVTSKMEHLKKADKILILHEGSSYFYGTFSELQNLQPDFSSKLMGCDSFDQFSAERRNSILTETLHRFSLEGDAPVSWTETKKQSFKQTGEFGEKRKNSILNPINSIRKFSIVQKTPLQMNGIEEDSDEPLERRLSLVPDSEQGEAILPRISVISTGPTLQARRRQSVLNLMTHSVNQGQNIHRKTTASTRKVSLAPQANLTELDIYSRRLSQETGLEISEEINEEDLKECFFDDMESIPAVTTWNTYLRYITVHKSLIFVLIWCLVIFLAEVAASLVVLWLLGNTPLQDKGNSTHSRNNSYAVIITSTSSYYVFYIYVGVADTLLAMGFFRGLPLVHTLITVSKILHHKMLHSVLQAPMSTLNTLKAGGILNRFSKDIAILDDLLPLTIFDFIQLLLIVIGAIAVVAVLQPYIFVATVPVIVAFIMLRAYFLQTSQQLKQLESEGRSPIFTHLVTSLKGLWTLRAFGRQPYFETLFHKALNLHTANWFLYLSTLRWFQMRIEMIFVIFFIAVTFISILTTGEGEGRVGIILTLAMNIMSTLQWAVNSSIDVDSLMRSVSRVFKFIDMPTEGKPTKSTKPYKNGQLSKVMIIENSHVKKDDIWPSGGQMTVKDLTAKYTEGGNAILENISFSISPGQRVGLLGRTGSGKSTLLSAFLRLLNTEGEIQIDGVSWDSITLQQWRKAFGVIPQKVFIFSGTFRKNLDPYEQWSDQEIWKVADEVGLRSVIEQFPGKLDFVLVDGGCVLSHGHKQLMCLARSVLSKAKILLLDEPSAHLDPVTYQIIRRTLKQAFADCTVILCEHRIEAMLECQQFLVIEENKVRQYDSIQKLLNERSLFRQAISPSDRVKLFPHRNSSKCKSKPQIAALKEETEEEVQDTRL

In the case of `Cn1nc(COc2cccc(F)c2)c2c1CCN(C(=O)Nc1ccc(Cl)cc1)C2` [PDSinh-A01], the “effect on CFTR activity (Isc response)” value (CFTR) is reported as “did not affect the activity”, the IC50 (pendrin; Cl−/I− exchange, read-out: IC50 for Cl−/I− exchange) is reported as ~8 µM and the IC50 (pendrin; Cl−/NO3− exchange, read-out: IC50 for Cl−/NO3− exchange) is reported as ~5 µM. For the same molecule, the “time at which ~IC50 (half inhibition) was displayed, inhibition kinetics” value (pendrin; Cl−/SCN− exchange, 10 μM added for indicated times) was 5 min, the IC50 (pendrin; Cl−/SCN− exchange, read-out: IC50 for Cl−/SCN− exchange) was ~9 µM and the inhibition at 25 µM (pendrin) was ~100%. For the same molecule, the “reversibility of inhibition by washout” value (pendrin; washout) was “reversible”.
Work on `Cc1n[nH]c(-c2cc(S(=O)(=O)NC3CCCc4ccccc43)c(C)s2)c1C` (centres unmarked) [PDSinh-C01] yielded an inhibition at 25 µM (pendrin) of 83%.
